The text below walks through data of patent US9901639B2, “Bone marrow origin progenitor cell or endothelial progenitor cell in combination with DNMT1 gene therapy for vascular repair in metabolic disease” (Temple University—of the Commonwealth System of Higher …, priority 2015, dated 2018).

What all share (type): cell-based, human
Data set [1] has as its system hEPCs. Briefly: hEPC 3H-thymidine incorporation proliferation assay. To be noted: L-Hcy 50 to 250 μmol/L, 24 h. An excerpt:
In this study EPCs refer to endothelial colony-forming cells (ECFCs) and their progenitor cell capacities were characterized as described (Wu, Y et al., J Thromb Haemost, 2010; 8:185-193; Wang, H et al., Circulation research, 2004; 94:843 and Stellos, K et al., Eur Heart J., 2009; 30:584-593). Briefly, human blood was collected from healthy volunteer donors. All volunteers had no risk factors of CVD including hypertension, diabetes, smoking, positive family history of premature CVD and hypercholesterolemia, and were all free of wounds, ulcers, retinopathy, recent surgery, inflammatory, malignant diseases, and medications that may influence EPC kinetics. […] After staining, cells were imaged with high-power fields under an inverted fluorescent microscope (Axiovert 200, Carl Zeiss, Thornwood, N.Y.) at 200× magnification and quantified using Image J software. […]
^3H thymidine incorporation assay was used to detect EPC proliferation activity as previously described (Tan, H et al., Cardiovascular research, 2006; 69:253-262). ^3EPCs were seeded onto 24-well plates (5×10^4 cells/well) in EGM2 medium and exposed to L-Hcy (50 to 250 μmol/L) for 24 h after grown to 70-80% confluence. […] Incorporated [methyl-^3H] thymidine was measured in a liquid scintillation counter (PerkinElmer Inc. Waltham, Mass., USA).

Data set [2] deals with hEPCs. Briefly: hEPC adhesion assay on fibronectin. To be noted: L-Hcy 250 μmol/L, 48 h. The text has this:
(§1) In this study EPCs refer to endothelial colony-forming cells (ECFCs) and their progenitor cell capacities were characterized as described (Wu, Y et al., J Thromb Haemost, 2010; 8:185-193; Wang, H et al., Circulation research, 2004; 94:843 and Stellos, K et al., Eur Heart J., 2009; 30:584-593). Briefly, human blood was collected from healthy volunteer donors. All volunteers had no risk factors of CVD including hypertension, diabetes, smoking, positive family history of premature CVD and hypercholesterolemia, and were all free of wounds, ulcers, retinopathy, recent surgery, inflammatory, malignant diseases, and medications that may influence EPC kinetics. After dilution with HBSS (1:1), blood was overlaid onto Histopaque 1077 (Sigma-Aldrich Co. LLC, St. Louis, Mo.) in the ratio of 1:1 and centrifuged at 740 g for 30 minutes at room temperature. Buffy coat MNCs were collected and centrifuged at 700 g for 10 minutes at room temperature. MNCs were cultured in collagen type I (BD Bioscience, San Diego) (50 m/ml)-coated dishes with EBM2 basal medium (Lonza Inc., Allendale, N.J.) plus standard EGM-2 SingleQuotes (Lonza Inc., Allendale, N.J.) that includes 2% fetal bovine serum (FBS), EGF (20 ng/ml), hydrocortisone (1 μg/ml), bovine brain extract (12 μg/ml), gentamycin (50 μg/ml), amphotericin B (50 ng/ml), and epidermal growth factor (10 ng/ml). Colonies appeared between 5 and 22 days of culture were identified as a well-circumscribed monolayer of cobblestone-appearing cells. […] After staining, cells were imaged with high-power fields under an inverted fluorescent microscope (Axiovert 200, Carl Zeiss, Thornwood, N.Y.) at 200× magnification and quantified using Image J software. […]
EPC adhesion to extracellular matrix (ECM) was evaluated as previously described. […] Adherent cells were photographed with high-power fields under an inverted fluorescent microscope (Axiovert 200, Carl Zeiss, Thornwood, N.Y.) at 200× magnification and quantified by counting the attached cells using image J.

Data set [3] deals with hEPCs. The data set is described as follows: hEPC viability by crystal violet staining. To be noted: L-Hcy 48 h. As for the experimental part: Confluent hEPCs were treated with L-Hcy at indicated concentrations for functional studies as described in the section of Methods. FIG. 5A. […] FIG. 5B. Representative images of hEPC adhesion. hEPCs treated with L-Hcy for 48 h were harvested and plated on fibronectin-coated cell culture plates for 1 hour at 37° C. Attached cells were photographed and quantified in high-power fields under an inverted microscope. FIG. 5C. Quantitative analysis of adhesion. FIG. 5D. Representative images of hEPC migration. Confluent hEPCs were incubated with L-Hcy for 48 h, scratched to create a wound and evaluated for migration after 20 h. E. Quantitative analysis of migration. FIG. 5F. Quantitative analysis of hEPC proliferation. 80% confluent hEPCs were treated with L-Hcy for 24 h and labeled with ^3[H]-thymidine for the last 4 h. Incorporated ^3[H]-thymidine was measured in a liquid scintillation counter. FIG. 5G. Quantitative analysis of hEPC viability. Confluent hEPCs were treated with L-Hcy for 48 h and nuclear counts determined by crystal violet staining to determine the viable cells. Data are representative of 3 separate experiments and are shown as mean±SD. *P<0.05 versus control. hEPCs; human endothelial progenitor cells; Hcy, homocysteine.

In data set [4] the test system is hEPCs. The data set is described as follows: hEPC scratch wound migration assay.
Text: as §1, with “cells. ECFCs with endothelial lineage markers expression, robust proliferative potential, colony-forming, and vessel-forming activity in vitro are defined as EPCs as described (Wang, H et al., Circulation research, 2004; 94:843 and Stellos, K et al., Eur Heart J., 2009; 30:584-593). Passage 4 to 6 EPCs were used for experiments. For a brief characterization, endothelial phagocytosis function was confirmed by incubating EPC in 4-well chamber slide with 1, 1-dioctadecyl-3, 3, 3, 3-tetramethylindocarbocyanine (DiI)-labeled acetylated low-density lipoprotein (acLDL) (Biomedical Technologies, Inc., Stoughton, Mass.) (5 m/ml) at 37° C. for 1 h, washed 3 times for 15 min in PBS, and then fixed with 2% paraformaldehyde for 10 min.” for “cells.”
EPC migration was evaluated using a scratch wound assay as previously described (Tan, H et al., Cardiovascular research, 2006; 69:253-262). […]

For the molecule `N[C@@H](CCS)C(=O)O` [L-Hcy, homocysteine], in the data set on hEPCs [1], the “DNA synthesis ([3H] thymidine uptake)” value is listed as “dose sensitively inhibited”. In addition, the “EPC adhesion to fibronectin compared with the control” value in the data set with hEPCs [2] was 57%. Moreover, the “Hcy-suppressed adhesion in hEPC (without 12G10)” value in the data set on hEPCs [2] (adhesion rescue experiment) stood at 62%. For the same molecule, the “EPC adhesion to fibronectin” value in the data set on hEPCs [2] (control 0.13±0.006) is recorded as 0.06±0.008 OD630 nm. The EPC viability entry in the data set with hEPCs [3] is “no effect”. Further, in the data set on hEPCs [4] (Hcy 100 μmol/L), the “hEPC migration (value in brackets)” value was 54.6±2.8 and the “hEPC migration reduced to” value was 68%. In addition, in the data set on hEPCs [4] (Hcy 250 μmol/L), the “hEPC migration (value in brackets)” value is 49.7±1.1 and the “hEPC migration reduced to” value turned out to be 62%.
